Data: US12071469B2, “Peptide compounds for suppressing inflammation” (Duke University, priority 2011, dated 2024)
“Also recorded” adds a separate entry of the source.

Assays:
[1] = system: primary rat neuronal cortical culture exposed to NMDA; test: Neuroprotection from NMDA mediated cell death in primary neuronal culture (LDH release); type: cell-based; conditions: for reduced LDH release: concentration not given
Method: Peptides of 5 amino acids in length were applied to one or more samples of cells in parallel at concentrations ranging from about 0 to about 50 μM, such as 0.3, 3, and 30 μM. The peptides AL-10-1 (SEQ ID NO:18) and VL-17-9 (SEQ ID NO:19), which are longer peptides (12 amino acids each) were used as negative and positive controls, respectively. A series of peptides were screened in primary rat neuronal cortical culture exposed to NMDA using the method described in Aono et al., Neuroscience (2003) 116:437 and Aono et al., Neurobiology of Disease (2002) 11:214, both of which are incorporated by reference in their entirety (see Table 2). Neuroprotection from NMDA mediated cell death in primary neuronal culture was expressed as percentage decrease in LDH, 24 hours after exposure to NMDA compared to vehicle treated cultures (Table 2). LDH release is indicative of neuronal death after NMDA exposure. The peptide VR-55 (SEQ ID NO:4) reduced NMDA mediated excitotoxic cell death by approximately 19% at a concentration of 1 μM. […] The positive control peptide VL-17-9 reduced LDH release by 31%.
Dose response of the neuroprotection from NMDA excitotoxicity in primary neuronal culture was determined for ApoE mimetic peptide VR-55 (SEQ ID NO: 4). […] “0” indicates less than 5% suppression; “+” indicates 5-10% suppression; “++” indicates 11-20% suppression; and “+++” indicates greater than 20% suppression. In addition to VL-17-9, several other candidates had greater than 20% suppression, including VR-55, VL-5-1, VL-5-2 and VR-52.

[2] = system: BV-2 murine microglial cells; test: Suppression of LPS-stimulated TNF-α production in BV-2 microglial cells (ELISA); type: cell-based; conditions: peptide 0.3, 3 or 30 μM; LPS 100 ng/mL, six hours; FIG. 1; listed as SEQ ID NO:3
Method: Cultured BV-2 murine microglial cells were incubated with either the indicated concentrations of peptide (SEQ ID NO:3) or a negative control peptide (SEQ ID NO:13) and stimulated with lipopolysaccharide (LPS) (100 ng/mL) for six hours. After six hours, supernatants were harvested and the concentration of secreted TNF-α was measured by ELISA (**p<0.01; ANOVA).
(§1) In vitro methods have been developed using cultured cells for evaluating the ability of a compound, such as a peptide, to suppress glial activation. Laskowitz et al., (2001) Exp. Neurol., 167:74-85. Glial cell cultures were grown and maintained under standard conditions. Cultured glial cells may include primary murine mixed glial cell cultures, murine BV-2 microglial cells, and human C3 microglial cells. Adherent glial cells were washed with OptiMEM® medium (available from Invitrogen Corp.) to remove serum and covered with fresh OptiMEM® medium containing peptide.
Larger peptides or proteins may need to be tested at higher concentrations to observe measurable suppression of glial activation. […]
Murine BV-2 cultures were prepared and used to evaluate suppression of microglial activation as described in Example 1. […] Each sample was stimulated with LPS and assessed for TNF-α production as described in Example 1.

[3] = system: mice with traumatic brain injury; test: Rotorod vestibulomotor function after traumatic brain injury; type: in vivo, mouse; conditions: 0.05 mg/kg or 0.2 mg/kg iv at 2 h and 6 h after traumatic brain injury
Method: An experimental murine model for traumatic brain injury was developed. Laskowitz, et al. (2010) J. Neurotrauma, 27:1983-95. Male mice (age 12-14 weeks) were anesthetized with 4.3% isoflurane in oxygen in an anesthesia induction box for 90 seconds. The trachea was intubated and the lungs mechanically ventilated with 1.4% isoflurane in a 50/50 mixture of oxygen and nitrogen. Body temperature was maintained at 37° C. using surface heating/cooling. The top of the skull was exposed by a midline incision to identify anatomical landmarks, and a concave 3-mm metallic disc was secured to the skull surface with an adhesive, directly midline and just caudal to the bregma. The disc diffused the energy of impact and reduced the incidence of depressed skull fracture to less than 10%. After general anesthesia, mice were positioned in a stereotactic device and the skull was exposed. A pneumatic impactor (diameter: 2.0 mm; available from Air-Power, Inc.) discharged at 6.8±0.2 m/s with a head displacement of 3 mm was used to deliver a single midline impact to the disc surface.
An experimental procedure for measuring neurological deficits was developed. An automated rotorod (available from Ugo Basile North America, Inc.) was used to assess vestibulomotor function. On the day before experimental induction of a neurological condition or injury (such as, for example, traumatic brain injury or intracerebral hemorrhage as described above), mice under went two consecutive conditioning trials at a set rotational speed (16 revolutions per minute) for 60 seconds followed by three additional trials with an accelerating rotational speed. The average time to fall from the rotating cylinder in the latter three trials was recorded as baseline latency. After injury, mice under went consecutive daily testing with three trials of accelerating rotational speed (intertribal interval of 15 minutes). Average latency to fall from the rod was recorded, and mice unable to grip the rod were scored with a latency of 0 seconds.
Groups of mice received either an ApoE mimetic peptide (SEQ ID NO:3; 0.05 mg/kg or 0.2 mg/kg) or carrier (saline) by intravenous tail vein injection at 2 hours and again at 6 hours after traumatic brain injury induced as described in Example 3. Each mouse was tested for vestibulomotor function by rotorod latency measured before and after injury, as described in Example 3.
Groups of mice received either an ApoE mimetic peptide (SEQ ID NO:4; 0.05 mg/kg) or carrier (saline) by intravenous tail vein injection at 2 hours and again at 6 hours after traumatic brain injury induced as described in Example 3. Each mouse was tested for vestibulomotor function by rotorod latency measured before and after injury, as described in Example 3. […]

[4] = system: mixed glial primary culture; test: Suppression of TNF-α release in mixed glial primary culture after exposure to LPS; type: cell-based, murine; conditions: FIGS. 11A and 11B
Method: as §1
Larger peptides or proteins may need to be tested at higher concentrations to observe measurable suppression of glial activation. If using primary murine cells and BV-2 cells, cells are stimulated with 100 ng/ml E. coli LPS (available from Sigma-Aldrich Co.), and supernatant is collected six hours after LPS stimulation and assayed for nitrite (using a colorimetric Griess reagent system, available from Promega Corp.) and/or TNF-α (using a solid-phase ELISA kit, available from Invitrogen Corp.). If using human C3 cells, cells are stimulated with 200 μg/ml polyinosinic acid 5′ (available from Sigma-Aldrich Co.), and supernatant is collected 5 days after stimulation and assayed for TNF-α using a solid-phase ELISA kit (available from Invitrogen Corp.).
The protective activity against brain injury-downregulating CNS inflammatory response was determined for ApoE mimetic peptides, VR-55 (SEQ ID NO: 4), VL-5-1 (SEQ ID NO: 5) and VL-5-3 (SEQ ID NO: 10).

Ac-LRVRLASLLRKL-NH2 [VL-17-9, longer peptide (12 amino acids) used as positive control, reference compound]
reduced LDH release [1]: 31%
percentage decrease in LDH, 24 hours after exposure to NMDA compared to vehicle treated cultures ([1]; peptide 0.1 μM): 16.19%
percentage decrease in LDH, 24 hours after exposure to NMDA compared to vehicle treated cultures ([1]; peptide 1 μM): 30.95%
suppression of LDH release, cumulative data (class) ([1]; peptide 1 μM): +++ (greater than 20% suppression)

Ac-VARKL-NH2 [VL-5-2]
reduced LDH release [1]: 31%
percentage decrease in LDH, 24 hours after exposure to NMDA compared to vehicle treated cultures ([1]; peptide 1 μM): 34.26%
suppression of LDH release, cumulative data (class) ([1]; peptide 1 μM): +++ (greater than 20% suppression)

Ac-RSKRR-NH2 [RR-5-2]
percentage decrease in LDH, 24 hours after exposure to NMDA compared to vehicle treated cultures ([1]; peptide 1 μM): 0.08%
suppression of LDH release, cumulative data (class) ([1]; peptide 1 μM): 0 (less than 5% suppression)

Ac-VSKRR-NH2 [VR-53]
percentage decrease in LDH, 24 hours after exposure to NMDA compared to vehicle treated cultures ([1]; peptide 1 μM): 7.03%
suppression of LDH release, cumulative data (class) ([1]; peptide 1 μM): + (5-10% suppression)
TNF-α production relative to untreated cells or negative control peptide [2]: inhibition of microglial TNF-α secretion; also recorded: decreased TNF-α production
durability of effect on rotorod latency [3]: durable through the five-day testing period
vestibulomotor performance (rotorod latency) compared to carrier ([3]; FIG. 2, listed as SEQ ID NO:3): significantly improved vestibulomotor performance

Ac-VSRKR-NH2 [VR-52]
percentage decrease in LDH, 24 hours after exposure to NMDA compared to vehicle treated cultures ([1]; peptide 1 μM): 12.63%
suppression of LDH release, cumulative data (class) ([1]; peptide 1 μM): +++ (greater than 20% suppression)

Ac-VSKKR-NH2 [VR-54, negative control peptide, reference compound]
percentage decrease in LDH, 24 hours after exposure to NMDA compared to vehicle treated cultures ([1]; peptide 1 μM): −15.91%
suppression of LDH release, cumulative data (class) ([1]; peptide 1 μM): ++ (11-20% suppression)

Ac-VARKL-NH2 [VL-5-1]
percentage decrease in LDH, 24 hours after exposure to NMDA compared to vehicle treated cultures ([1]; peptide 0.1 μM): 18.57%
percentage decrease in LDH, 24 hours after exposure to NMDA compared to vehicle treated cultures ([1]; peptide 0.3 μM): 0.29%
percentage decrease in LDH, 24 hours after exposure to NMDA compared to vehicle treated cultures ([1]; peptide 1 μM): 24.48%
suppression of LDH release, cumulative data (class) ([1]; peptide 1 μM): +++ (greater than 20% suppression)
release of inflammatory cytokine TNF-α [4]: inhibition of microglial TNF-α secretion; also recorded: suppress the release of inflammatory cytokine TNF-α

Ac-RHKRR-NH2 [RR-5-1]
percentage decrease in LDH, 24 hours after exposure to NMDA compared to vehicle treated cultures ([1]; peptide 1 μM): 7.50%
suppression of LDH release, cumulative data (class) ([1]; peptide 1 μM): + (5-10% suppression)

Ac-VARRL-NH2 [VL-5-3]
percentage decrease in LDH, 24 hours after exposure to NMDA compared to vehicle treated cultures ([1]; peptide 0.1 μM): −19.04%
percentage decrease in LDH, 24 hours after exposure to NMDA compared to vehicle treated cultures ([1]; peptide 0.3 μM): −16.70%
percentage decrease in LDH, 24 hours after exposure to NMDA compared to vehicle treated cultures ([1]; peptide 1 μM): 11.50%
suppression of LDH release, cumulative data (class) ([1]; peptide 1 μM): ++ (11-20% suppression)
release of inflammatory cytokine TNF-α [4]: inhibition of microglial TNF-α secretion; also recorded: suppress the release of inflammatory cytokine TNF-α

Ac-ASHLRKLRKRLL-NH2 [AL-10-1, reference compound]
percentage decrease in LDH, 24 hours after exposure to NMDA compared to vehicle treated cultures ([1]; peptide 1 μM): −6.21%
suppression of LDH release, cumulative data (class) ([1]; peptide 1 μM): 0 (less than 5% suppression)

Ac-RARRL-NH2 [RL-5-2]
percentage decrease in LDH, 24 hours after exposure to NMDA compared to vehicle treated cultures ([1]; peptide 1 μM): −5.23%
suppression of LDH release, cumulative data (class) ([1]; peptide 1 μM): 0 (less than 5% suppression)

Ac-RHKKL-NH2 [RL-5-1]
percentage decrease in LDH, 24 hours after exposure to NMDA compared to vehicle treated cultures ([1]; peptide 1 μM): −2.85%
suppression of LDH release, cumulative data (class) ([1]; peptide 1 μM): ++ (11-20% suppression)

Ac-RSKKL-NH2 [RL-5-3]
percentage decrease in LDH, 24 hours after exposure to NMDA compared to vehicle treated cultures ([1]; peptide 1 μM): −20.80%
suppression of LDH release, cumulative data (class) ([1]; peptide 1 μM): 0 (less than 5% suppression)
